The assay addresses c-MET (Homo sapiens, UniProt P08581). Nature of the assay: Ki determination for the inhibition of c-MET (standard radiometric 33P-ATP kinase assay, polyE4Y substrate). The assay is classed as biochemical. As to conditions: 1.0 nM c-Met, 35 μM ATP, 0.5 mg/mL polyE4Y, 20 min; competitive tight-binding fit. In outline: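 Radiometric assay of 33P transfer from 33P-ATP (35 μM) to polyE4Y (0.5 mg/mL) by 1.0 nM c-Met in 100 mM HEPES pH 7.5, 10 mM MgCl2, 25 mM NaCl, 0.01% BSA, 1 mM DTT. TCA-quenched after 20 min, filter-captured, scintillation-counted; Ki fitted to a competitive tight-binding model.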

SMILES strings stand for the structures.

Chain of c-MET (P08581 25-1390): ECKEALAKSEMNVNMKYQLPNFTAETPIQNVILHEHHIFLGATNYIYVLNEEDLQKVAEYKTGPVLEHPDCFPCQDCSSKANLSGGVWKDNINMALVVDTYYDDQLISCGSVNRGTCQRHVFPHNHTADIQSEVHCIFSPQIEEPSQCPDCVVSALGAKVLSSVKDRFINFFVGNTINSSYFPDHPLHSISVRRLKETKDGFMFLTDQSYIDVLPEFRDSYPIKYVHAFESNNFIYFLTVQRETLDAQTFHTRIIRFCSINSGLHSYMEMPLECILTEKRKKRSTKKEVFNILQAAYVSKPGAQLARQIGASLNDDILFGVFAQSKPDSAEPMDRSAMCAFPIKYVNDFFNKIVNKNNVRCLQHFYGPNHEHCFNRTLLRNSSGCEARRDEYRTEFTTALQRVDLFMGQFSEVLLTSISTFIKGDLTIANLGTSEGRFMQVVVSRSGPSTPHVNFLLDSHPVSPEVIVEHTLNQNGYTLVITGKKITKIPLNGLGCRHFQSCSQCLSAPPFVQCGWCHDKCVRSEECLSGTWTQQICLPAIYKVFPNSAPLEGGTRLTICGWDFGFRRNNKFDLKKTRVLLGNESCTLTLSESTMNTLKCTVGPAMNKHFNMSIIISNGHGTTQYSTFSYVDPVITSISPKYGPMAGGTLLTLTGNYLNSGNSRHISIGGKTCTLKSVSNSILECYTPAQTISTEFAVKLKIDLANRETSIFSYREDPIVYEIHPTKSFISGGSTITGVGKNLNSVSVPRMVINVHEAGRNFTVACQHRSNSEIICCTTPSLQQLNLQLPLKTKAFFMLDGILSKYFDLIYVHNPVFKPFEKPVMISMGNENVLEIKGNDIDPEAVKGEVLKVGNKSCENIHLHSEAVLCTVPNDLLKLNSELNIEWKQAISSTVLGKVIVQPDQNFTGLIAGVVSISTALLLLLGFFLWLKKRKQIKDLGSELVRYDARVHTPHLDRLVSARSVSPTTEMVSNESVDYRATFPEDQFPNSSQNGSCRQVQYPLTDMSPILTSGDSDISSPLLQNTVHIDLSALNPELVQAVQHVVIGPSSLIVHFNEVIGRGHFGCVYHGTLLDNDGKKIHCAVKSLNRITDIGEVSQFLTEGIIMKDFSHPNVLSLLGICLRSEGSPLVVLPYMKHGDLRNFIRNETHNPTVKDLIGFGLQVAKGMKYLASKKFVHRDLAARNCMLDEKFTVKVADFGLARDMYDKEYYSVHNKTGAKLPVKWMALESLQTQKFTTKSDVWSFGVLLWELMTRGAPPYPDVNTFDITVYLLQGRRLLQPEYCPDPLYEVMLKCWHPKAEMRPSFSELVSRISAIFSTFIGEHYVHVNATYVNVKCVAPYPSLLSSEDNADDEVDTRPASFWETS

In turn, `CN(C)Cc1ccc(-c2cnc(N)c(-c3nnnn3-c3c(F)ccc(F)c3F)c2)cc1` [I-A-381] displayed a Ki of at most 100 nM.

In turn, `CSc1ccc(-c2cnc(N)c(-c3nnnn3-c3cccc(F)c3F)c2)cc1` [I-A-251] came in with a Ki of at most 100 nM.

`Nc1ncc(-c2ccc(CN3CC[C@H](O)C3)cc2)cc1-c1nnnn1-c1cccc(Cl)c1Cl` [I-A-120] returned an inhibition constant Ki of at most 100 nM.

`CN1CCN(c2ccc(-c3cnc(N)c(-c4nnnn4-c4cccc(Cl)c4Cl)c3)cc2)CC1` [I-A-85]: the Ki is at most 100 nM.

As to `Nc1ncc(-c2ccc(CN3CC[C@H](O)C3)cc2)cc1-c1nnnn1-c1cccc(F)c1F` [I-A-131], the Ki is at most 100 nM.

In the case of `Nc1ncc(-c2ccncc2)cc1-c1nnnn1-c1cccc(F)c1F` [I-A-490], the Ki fell in the range of 100 to 1000 nM.

In turn, `CS(=O)(=O)NCc1ccc(-c2cnc(N)c(-c3nnnn3-c3cccc(F)c3F)c2)cc1` [I-A-192] had a Ki of at most 100 nM.

Molecule `CN(C)Cc1ccc(-c2cnc(N)c(-c3nnnn3-c3cccc(F)c3F)c2)cc1F` [I-A-165] registered an inhibition constant Ki of at most 100 nM.

`Nc1ncc(-c2cccc(NC(=O)Nc3cccs3)c2)cc1-c1nnnn1-c1cccc(F)c1F` [I-A-275] came in with an inhibition constant Ki of 100 to 1000 nM.

The molecule `Nc1ncc(-c2cnn([C@H]3CCCNC3)c2)cc1-c1nnnn1-c1cccc(Cl)c1Cl` [I-A-409] returned an inhibition constant (Ki) of at most 100 nM.

`CN(C)Cc1ccc(-c2cnc(N)c(-c3nnnn3-c3c(F)ccc(F)c3Cl)c2)cc1` [I-A-630] registered an inhibitory constant (Ki) of at most 100 nM.

The molecule `Nc1ncc(-c2cnn(C3CCN(CCF)CC3)c2)cc1-c1nnnn1-c1cccc(F)c1F` [I-A-452] gave a Ki of at most 100 nM.

Molecule `Nc1ncc(-c2cccc3c2OC(F)(F)O3)cc1-c1nnnn1-c1cccc(F)c1F` [I-A-310] yielded a Ki of 100 to 1000 nM.

`CN1CCN(c2ccc(-c3cnc(N)c(-c4nc5cccnc5n4-c4cccc(Cl)c4F)c3)cc2)CC1` [I-D-17] had a Ki of 100 to 1000 nM.

As for `CS(=O)(=O)c1ccc(-c2cnc(N)c(-c3nnnn3-c3cccc(F)c3F)c2)cc1` [I-A-250], the inhibition constant Ki was at most 100 nM.

Turning to `CC(=O)Nc1cccc(-c2cnc(N)c(-c3nnnn3-c3cccc(F)c3F)c2)c1` [I-A-139], the inhibitory constant (Ki) was at most 100 nM.

In turn, `CC(c1ccc(-c2cnc(N)c(-c3nnnn3-c3cccc(F)c3F)c2)cc1)N1CCCC1` (stereo not drawn) [I-A-180] displayed a Ki of at most 100 nM.

`CN1CCN(c2ccc(-c3cnc(N)c(-c4nncn4-c4cccc(F)c4F)c3)cc2)CC1` [I-A-41] displayed a Ki of 100 to 1000 nM.

Molecule `COc1ccc(F)cc1-n1nnnc1-c1cc(-c2ccc(CN3CCCC3)cc2)cnc1N` [I-A-602] gave a Ki of 100 to 1000 nM.

Regarding `CN1CCN(c2ccc(-c3cnc(N)c(-c4nnnn4-c4cccc(F)c4F)n3)cc2)CC1` [I-A-46], the inhibition constant Ki was at most 100 nM.

Molecule `Nc1ncc(-c2ccccc2Cl)cc1-c1nnnn1-c1cccc(F)c1F` [I-A-224] registered an inhibition constant (Ki) of 100 to 1000 nM.

`CC(=O)Nc1ccc(-c2cnc(N)c(-c3nnnn3-c3cccc(Cl)c3Cl)c2)cc1` [I-A-81] yielded a Ki of at most 100 nM.

As for `CN1C2CCC1CC(n1cc(-c3cnc(N)c(-c4nnnn4-c4cccc(F)c4F)c3)nn1)C2` (stereo not drawn) [I-A-484], the Ki was at most 100 nM.

`Nc1ncc(C2=CCCN(C(=O)C(F)(F)F)CC2)cc1-c1nnnn1-c1cccc(F)c1F` [I-A-647] yielded an inhibitory constant (Ki) of 100 to 1000 nM.

Consider `CC1CCCN1Cc1ccc(-c2cnc(N)c(-c3nnnn3-c3cccc(F)c3F)c2)cc1` (stereo not drawn) [I-A-209], for which the Ki was at most 100 nM.

`CC(=O)c1ccc(-c2cnc(N)c(-c3nnnn3-c3cccc(F)c3F)c2)cc1` [I-A-219] registered an inhibition constant (Ki) of at most 100 nM.

`Nc1ncc(-c2cnn(C3CCN(CC4CCC4)CC3)c2)cc1-c1nnnn1-c1cccc(Cl)c1F` [I-A-473] gave an inhibitory constant (Ki) of at most 100 nM.

In the case of `Nc1ncc(-c2ccc(C3CCNCC3)s2)cc1-c1nnnn1-c1cccc(Cl)c1Cl` [I-A-416], the inhibitory constant (Ki) was at most 100 nM.

On to `CC(=O)Nc1ccc(-c2cnc(N)c(-c3nnnn3-c3c(Cl)cccc3Cl)c2)cc1` [I-A-621], for which the Ki lay within 100 to 1000 nM.

For `Nc1ncc(-c2nccs2)cc1-c1nnnn1-c1cccc(F)c1F` [I-A-539], the Ki was 100 to 1000 nM.

In turn, `Nc1ncc(-c2cc(F)c(N)c(F)c2)cc1-c1nnnn1-c1cccc(F)c1F` [I-A-303] returned a Ki of at most 100 nM.

`Nc1ncc(-c2cc(F)ccc2F)cc1-c1nnnn1-c1cccc(F)c1F` [I-A-294] showed an inhibition constant (Ki) of 100 to 1000 nM.

As to `Nc1ncc(-c2ccccc2O)cc1-c1nncn1-c1cccc(Cl)c1Cl` [I-A-75], the inhibition constant (Ki) was 100 to 1000 nM.

For the molecule `Nc1ncc(-c2cnn(C3CCNCC3)c2)cc1-c1nnnn1-c1cc(F)ccc1Cl` [I-A-637], the Ki lay within 100 to 1000 nM.

Regarding `CC(=O)Nc1cccc(-c2cnc(N)c(-c3nnnn3-c3cc(F)ccc3Cl)c2)c1` [I-A-569], the inhibition constant (Ki) was in the range of 100 to 1000 nM.

`COc1cc2nc(N)[nH]c2cc1-c1cnc(N)c(-c2nnnn2-c2cccc(F)c2F)n1` [I-A-54] returned a Ki of at most 100 nM.

`CNc1ccc(-c2cnc(N)c(-c3nnnn3-c3cccc(F)c3F)c2)cc1C#N` [I-A-341] displayed a Ki of at most 100 nM.

`CN(C)CCCN(C)Cc1ccc(-c2cnc(N)c(-c3nnnn3-c3cccc(Cl)c3Cl)c2)cc1` [I-A-95] had an inhibitory constant (Ki) of at most 100 nM.

Molecule `Nc1ncc(-c2ccc(Cl)cc2)cc1-c1nncn1-c1cccc(F)c1F` [I-A-114] came in with an inhibition constant (Ki) of 100 to 1000 nM.

With `CSc1ccccc1-c1cnc(N)c(-c2nnnn2-c2cccc(F)c2F)c1` [I-A-252], the Ki fell in the range of 100 to 1000 nM.

Turning to `Nc1ncc(-c2cnn([C@@H]3CCNC3)c2)cc1-c1nnnn1-c1cccc(F)c1F` [I-A-404], the Ki is at most 100 nM.

`Cc1c(F)cccc1-n1nnnc1-c1cc(-c2ccc(CN(C)C)cc2)cnc1N` [I-A-577] registered a Ki of 100 to 1000 nM.

The molecule `COCCC(=O)N1CC=C(c2cnc(N)c(-c3nnnn3-c3cccc(F)c3F)c2)CC1` [I-A-514] displayed an inhibitory constant (Ki) of at most 100 nM.

Turning to `C[C@@H]1CC[C@@H](C)N1Cc1ccc(-c2cnc(N)c(-c3nnnn3-c3cccc(F)c3F)c2)cc1` [I-A-267], the inhibition constant Ki is at most 100 nM.

In turn, `CCNC(=O)Nc1nc2cc(-c3cnc(N)c(-c4nnnn4-c4cccc(F)c4F)c3)c(F)cc2[nH]1` [I-A-140] gave an inhibitory constant (Ki) of 100 to 1000 nM.

Molecule `Cc1nnc(-c2cnc(N)c(-c3nnnn3-c3cccc(F)c3F)c2)s1` [I-A-494] returned an inhibition constant Ki of 100 to 1000 nM.

Turning to `Nc1ncc(-c2ccc3c(c2)NC(=O)C3)cc1-c1nnnn1-c1cccc(F)c1F` [I-A-190], the Ki is at most 100 nM.

In turn, `Nc1ncc(-c2ccccc2O)cc1-c1nnnn1-c1cccc(F)c1F` [I-A-145] displayed a Ki of at most 100 nM.

Molecule `CN(C)Cc1ccc(-c2cnc(N)c(-c3nn(C4CCCCC4)cc3-c3cccc(Cl)c3Cl)c2)cc1` [I-B-11] showed a Ki of 100 to 1000 nM.

In turn, `Nc1ncc(-c2cccc(CN3CCCC3)c2)cc1-c1nnnn1-c1cccc(Cl)c1Cl` [I-A-109] returned an inhibition constant (Ki) of at most 100 nM.

`Nc1ncc(C2=CCN(Cc3cccnc3)CC2)cc1-c1nnnn1-c1cccc(F)c1F` [I-A-644] registered a Ki of 100 to 1000 nM.

As to `CC(=O)Nc1cccc(-c2cnc(N)c(-c3nnnn3-c3c(Cl)cccc3Cl)c2)c1` [I-A-611], the Ki fell in the range of 100 to 1000 nM.

`CC(=O)Nc1cccc(-c2cnc(N)c(-c3nnnn3-c3c(F)ccc(F)c3Cl)c2)c1` [I-A-613] displayed an inhibitory constant (Ki) of 100 to 1000 nM.

Turning to `Nc1ncc(-c2cnn([C@H]3CCCNC3)c2)cc1-c1nnnn1-c1cccc(F)c1F` [I-A-405], the Ki is at most 100 nM.

With `Nc1ncc(-c2cnn(C3CCOCC3)c2)cc1-c1nnnn1-c1cccc(F)c1F` [I-A-396], the inhibitory constant (Ki) was at most 100 nM.

Take `COc1cc(-c2cnc(N)c(-c3nnnn3-c3cccc(F)c3F)c2)cc(OC)c1OC` [I-A-296]: the Ki fell in the range of 100 to 1000 nM.

Molecule `Nc1ncc(-c2cnn(CCN3CCCC3)c2)cc1-c1nc2cnccc2n1-c1cccc(F)c1F` [I-D-11] returned a Ki of at most 100 nM.

`Nc1ncc(-c2ccc(CN3CC[C@@H](O)C3)cc2)cc1-c1nnnn1-c1cccc(F)c1F` [I-A-130] gave an inhibition constant Ki of at most 100 nM.

`Nc1ncc(-c2ccsc2)cc1-c1nnnn1-c1cccc(F)c1F` [I-A-143] had an inhibition constant (Ki) of at most 100 nM.

In turn, `Nc1ncc(-c2ccncc2)cc1-c1nncn1-c1cccc(Cl)c1Cl` [I-A-71] showed a Ki of 100 to 1000 nM.

`CC(=O)Nc1ccc(-c2cnc(N)c(-c3nnnn3-c3cccc(F)c3C)c2)cc1` [I-A-574] displayed a Ki of 100 to 1000 nM.

In the case of `CC(=O)Nc1ccc(-c2cnc(N)c(-c3nnnn3-c3cc(Cl)ccc3F)c2)cc1` [I-A-582], the inhibition constant (Ki) fell in the range of 100 to 1000 nM.

Molecule `CC1(C)CC(C(=O)N2CC=C(c3cnc(N)c(-c4nnnn4-c4cccc(F)c4F)c3)CC2)CCO1` (stereo not drawn) [I-A-515] came in with a Ki of at most 100 nM.

With `Nc1ncc(-c2cnn([C@@H]3CCNC3)c2)cc1-c1nnnn1-c1cccc(Cl)c1Cl` [I-A-408], the Ki was at most 100 nM.

`Nc1ncc(-c2cc3c(s2)CCNCC3)cc1-c1nnnn1-c1cccc(Cl)c1Cl` [I-A-431] registered a Ki of at most 100 nM.

As to `COc1c(F)cccc1-n1nnnc1-c1cc(-c2ccc(CN(C)C)cc2)cnc1N` [I-A-589], the Ki was at most 100 nM.

`Nc1ncc(-c2ccc3[nH]ncc3c2)cc1-c1nnnn1-c1cccc(F)c1F` [I-A-347]: the Ki was at most 100 nM.

In the case of `Nc1ncc(-c2cccc(NC(=O)NC3CCCCO3)c2)cc1-c1nnnn1-c1cccc(F)c1F` (stereo not drawn) [I-A-273], the Ki was at most 100 nM.

With `Nc1ncc(-c2ccc(CN3CCCC3)cc2)cc1-c1nnnn1-c1cccc(Cl)c1` [I-A-356], the inhibition constant Ki was 100 to 1000 nM.

Regarding `CCCS(=O)(=O)N1CCC(n2cc(-c3cnc(N)c(-c4nnnn4-c4cccc(Cl)c4F)c3)cn2)CC1` [I-A-446], the inhibition constant (Ki) was at most 100 nM.

In turn, `Nc1ncc(-c2ccc(C3CCNCC3)cc2)cc1-c1nnnn1-c1cccc(F)c1F` [I-A-400] had an inhibitory constant (Ki) of at most 100 nM.

`Nc1ccc(-c2cnc(N)c(-c3nnnn3-c3cccc(F)c3F)c2)cc1N` [I-A-298] returned an inhibition constant (Ki) of at most 100 nM.

Consider `N#Cc1ccc(-c2cnc(N)c(-c3nnnn3-c3cccc(F)c3F)c2)cc1` [I-A-229], for which the Ki lay in the range of 100 to 1000 nM.

`Nc1ncc(-c2cnc3[nH]ccc3c2)cc1-c1nnnn1-c1cccc(Cl)c1Cl` [I-A-92] yielded a Ki of at most 100 nM.

For `Nc1ncc(-c2cnn(C3CC4CCC(C3)N4)c2)cc1-c1nnnn1-c1cccc(Cl)c1F` (stereo not drawn) [I-A-528], the Ki is at most 100 nM.

These data come from US8232406B2, “c-MET protein kinase inhibitors” (Vertex Pharmaceuticals Incorporated, priority 2006, dated 2012).
